Experimental data from ChEMBL document CHEMBL3098120, “Synthesis and analysis of activity of a potential anti-melanoma prodrug with a hydrazine linker” (Eur J Med Chem, 2014).
The source made the active and inactive calls. No cut-off for these calls is given here.

What was measured:
[1] = Prodrug activation mediated by mushroom tyrosinase assessed as 5,6-dihydroxy-1H-indazol-1-yl 4-[bis-(2-chloroethyl)amino]benzoate formation up to 120 mins by UV-Vis spectroscopy; settings: agaricus bisporus, 2 h
B16-F10 [2] = assay: Antitumor activity against mouse B16F10 cells […] in C57BL/6 mouse assessed as reduction of tumor size at 100 ug administered as intratumorally for 3 days; assay type: functional, cell-based
B16-F10 [3] = assay: Cytotoxicity against mouse B16F10 cells at 250 uM after 24 to 48 hrs by MTT assay; assay type: functional, cell-based
NIH3T3 = assay: Cytotoxicity against mouse NIH/3T3 cells at 250 uM after 24 to 48 hrs by MTT assay; assay type: cell-based; settings: nih3t3, 250 µM
[4] = Cytotoxicity against mouse HECa10 cells at 250 uM after 24 to 48 hrs by MTT assay; assay type: cell-based
[5] = Prodrug activation mediated by mushroom tyrosinase assessed as 4-[bis-(2-chloroethyl) amino]benzoic cid formation up to 120 mins by TLC, HPLC or MS analysis; settings: agaricus bisporus, 2 h
[6] = Prodrug activation mediated by mushroom tyrosinase assessed as N-{4-[bis-(2-chloroethyl)amino]benzoyl}-N''-(4-hydroxybenzylidene)hydrazine formation up to 120 mins by TLC, HPLC or MS analysis; settings: agaricus bisporus, 2 h

Structure (SMILES) | Drug metabolism [1] | Activity (B16-F10 [2]) | Activity (B16-F10 [3]) | Activity (NIH3T3) | Activity [4] | Drug metabolism [5] | Drug metabolism [6]
O=C(NNCc1ccc(O)cc1)c1ccc(N(CCCl)CCCl)cc1 | Active | Active | Active | Toxic | Toxic | Not Active | Active
N[C@@H](Cc1ccc(N(CCCl)CCCl)cc1)C(=O)O |  | Active |  |  |  |  | 
